# Reference: ChEMBL document CHEMBL1150305, “Synthesis and in vitro PDT activity of miscellaneous porphyrins with amino acid and uracil” (2008)
# Assay: Photocytotoxicity against human Ec9706 cells after 2.5 hrs irradiation measured after 24 hrs incubation in dark by MTT assay
# Format: functional
row,SMILES,inhibition (INH) [%]
1,CC(C)(C)OC(=O)N[C@@H](Cc1ccccc1)C(=O)Nc1ccc(-c2c3nc(c(-c4ccc(NC(=O)Cn5cc(F)c(=O)[nH]c5=O)cc4)c4ccc([nH]4)c(-c4ccccc4)c4nc(c(-c5ccccc5)c5ccc2[nH]5)C=C4)C=C3)cc1,88.65
2,CC(C)(C)OC(=O)N[C@@H](Cc1ccccc1)C(=O)Nc1ccc(-c2c3nc(c(-c4ccc(NC(=O)[C@H](Cc5ccccc5)NC(=O)OC(C)(C)C)cc4)c4ccc([nH]4)c(-c4ccccc4)c4nc(c(-c5ccccc5)c5ccc2[nH]5)C=C4)C=C3)cc1,100
3,O=C(Cn1cc(F)c(=O)[nH]c1=O)Nc1ccc(-c2c3nc(c(-c4ccc(NC(=O)Cn5cc(F)c(=O)[nH]c5=O)cc4)c4ccc([nH]4)c(-c4ccccc4)c4nc(c(-c5ccccc5)c5ccc2[nH]5)C=C4)C=C3)cc1,100
4,Nc1ccc(-c2c3nc(c(-c4ccc(NC(=O)Cn5cc(F)c(=O)[nH]c5=O)cc4)c4ccc([nH]4)c(-c4ccccc4)c4nc(c(-c5ccccc5)c5ccc2[nH]5)C=C4)C=C3)cc1,97.09
5,Nc1ccc(-c2c3nc(c(-c4ccc(N)cc4)c4ccc([nH]4)c(-c4ccccc4)c4nc(c(-c5ccccc5)c5ccc2[nH]5)C=C4)C=C3)cc1,66.6
6,N[C@@H](Cc1ccccc1)C(=O)Nc1ccc(-c2c3nc(c(-c4ccc(NC(=O)Cn5cc(F)c(=O)[nH]c5=O)cc4)c4ccc([nH]4)c(-c4ccccc4)c4nc(c(-c5ccccc5)c5ccc2[nH]5)C=C4)C=C3)cc1,69.45
7,N[C@@H](Cc1ccccc1)C(=O)Nc1ccc(-c2c3nc(c(-c4ccc(NC(=O)[C@@H](N)Cc5ccccc5)cc4)c4ccc([nH]4)c(-c4ccccc4)c4nc(c(-c5ccccc5)c5ccc2[nH]5)C=C4)C=C3)cc1,96.13
8,Nc1ccc(-c2c3nc(c(-c4ccc(NC(=O)[C@@H](N)Cc5ccccc5)cc4)c4ccc([nH]4)c(-c4ccccc4)c4nc(c(-c5ccccc5)c5ccc2[nH]5)C=C4)C=C3)cc1,37.94
9,CC(C)(C)OC(=O)N[C@@H](Cc1ccccc1)C(=O)Nc1ccc(-c2c3nc(c(-c4ccc(N)cc4)c4ccc([nH]4)c(-c4ccccc4)c4nc(c(-c5ccccc5)c5ccc2[nH]5)C=C4)C=C3)cc1,47.21
